Assay results from patent US20230027601A1, “METHOD FOR MANUFACTURING REVAUDIOSIDE-D-CONTAINING CRYSTALLIZED PRODUCT, AND REVAUDIOSIDE-D-CONTAINING CRYSTALLIZED PRODUCT” (SUNTORY HOLDINGS LIMITED, priority 2019, published 2023).

Experiment: saturated solubility of RebA and RebD in ethanol solvent (excess loading, 24 h stirring, filtrate measured with LCMS)
Type: physicochemical
Settings: for saturated solubility: 90% by mass of EtOH, 10° C., values used in calculation of the degree of supersaturation; for saturated dissolution concentration: 90% ethanol solvent at 10° C., according to FIG. 1
Experimental: The saturated solubility is herein measured according to the following method. That is, 100 ml of a solvent having a predetermined methanol or ethanol concentration (w/w) is placed in a container (having a volume of 100 ml or 200 ml, suitably 200 ml), the liquid temperature is set to 10° C. by a water bath in advance, and then the solvent is stirred at 200 rpm, and a target substance is loaded in an excessive amount (amount until suspension is made). After 24 hours, a filtrate is obtained by a 0.45-um membrane filter, and the amount of the target substance (RebA or RebD) included in the filtrate is measured with LCMS. LCMS here used is suitably LCMS 8050 manufactured by Shimadzu Corporation.
Specifically, 100 ml of a solvent having a predetermined ethanol concentration (w/w) was placed in a […] glass container (separable round-bottomed flask, Tokyo Rikakikai Co., Ltd.), set to a predetermined temperature by a water bath (PCC-7000, Tokyo Rikakikai Co., Ltd.) in advance, and then stirred (SPZ-100, Tokyo Rikakikai Co., Ltd.) at 200 rpm, and RebA (J-100, Morita Kagaku Kogyo Co., Ltd.) or RebD (Jining Renewal & Joint International, China) was loaded in an excessive amount (amount until suspension was achieved). After 24 hours, a filtrate was obtained by a 0.45-um membrane filter, the amount of RebA or RebD included in the filtrate was measured with LCMS (LCMS 8050 manufactured by Shimadzu Corporation), and the solubility curve was created. The results are illustrated in FIG. 1.

Structure (SMILES) | saturated solubility | saturated dissolution concentration
C=C1C[C@@]23CC[C@H]4[C@@](C)(CCC[C@@]4(C)C(=O)O[C@@H]4O[C@H](CO)[C@@H](O)[C@H](O)[C@H]4O)[C@@H]2CC[C@]1(O[C@@H]1O[C@H](CO)[C@@H](O)[C@H](O[C@@H]2O[C@H](CO)[C@@H](O)[C@H](O)[C@H]2O)[C@H]1O[C@@H]1O[C@H](CO)[C@@H](O)[C@H](O)[C@H]1O)C3 [RebA, rebaudioside A] | 8270.5 ppm | 8,250 ppm
C=C1C[C@@]23CC[C@H]4[C@@](C)(CCC[C@@]4(C)C(=O)O[C@@H]4O[C@H](CO)[C@@H](O)[C@H](O)[C@H]4O[C@@H]4O[C@H](CO)[C@@H](O)[C@H](O)[C@H]4O)[C@@H]2CC[C@]1(O[C@@H]1O[C@H](CO)[C@@H](O)[C@H](O[C@@H]2O[C@H](CO)[C@@H](O)[C@H](O)[C@H]2O)[C@H]1O[C@@H]1O[C@H](CO)[C@@H](O)[C@H](O)[C@H]1O)C3 [RebD, rebaudioside D] | 99.33 ppm | 99.3 ppm
